Laboratory results reported in patent US5849770A, “Tri-substituted phenyl derivatives useful as PDE IV inhibitors” (Celltech Therapeutics Ltd., priority 1995, dated 1998).
Structures can show the parent of a compound that is named as a salt.

What was measured:
human PDE IVA = biological target: T1, human PDE IVA (Homo sapiens, UniProt P27815); test: Isolated recombinant human PDE IVA enzyme, phosphodiesterase activity; assay type: biochemical; details: 0.1 μM [3H]-cAMP, pH 7.5, 30° C.
T1 construct: made in house; host or cells: yeast (inducible vector)
T1 sequence (P27815 whole entry): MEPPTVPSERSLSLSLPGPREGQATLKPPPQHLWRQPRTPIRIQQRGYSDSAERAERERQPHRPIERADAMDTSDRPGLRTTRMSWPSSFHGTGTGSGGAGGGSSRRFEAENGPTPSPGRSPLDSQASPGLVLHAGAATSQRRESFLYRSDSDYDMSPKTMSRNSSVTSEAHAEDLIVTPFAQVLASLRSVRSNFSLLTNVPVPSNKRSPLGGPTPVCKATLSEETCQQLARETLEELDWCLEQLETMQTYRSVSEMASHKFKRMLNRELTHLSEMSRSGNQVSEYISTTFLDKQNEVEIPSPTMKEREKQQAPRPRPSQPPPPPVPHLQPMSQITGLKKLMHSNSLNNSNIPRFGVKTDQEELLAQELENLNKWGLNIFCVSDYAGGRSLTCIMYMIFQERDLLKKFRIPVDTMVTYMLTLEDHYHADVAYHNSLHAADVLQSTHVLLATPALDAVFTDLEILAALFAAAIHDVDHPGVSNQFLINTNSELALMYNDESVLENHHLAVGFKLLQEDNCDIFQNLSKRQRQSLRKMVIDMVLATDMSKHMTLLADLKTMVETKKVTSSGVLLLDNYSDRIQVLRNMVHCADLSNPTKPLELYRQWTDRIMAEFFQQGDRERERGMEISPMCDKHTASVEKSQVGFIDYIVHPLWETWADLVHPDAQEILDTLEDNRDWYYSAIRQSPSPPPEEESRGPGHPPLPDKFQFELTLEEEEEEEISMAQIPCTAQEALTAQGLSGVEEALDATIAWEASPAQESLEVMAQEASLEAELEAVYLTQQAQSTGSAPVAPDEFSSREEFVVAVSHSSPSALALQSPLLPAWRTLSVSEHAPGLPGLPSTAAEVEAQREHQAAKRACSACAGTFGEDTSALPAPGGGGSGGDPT
Source text: A gene encoding human PDE IV has been cloned from human monocytes (Livi, et al., 1990, Molecular and Cellular Biology, 10, 2678). Using similar procedures we have cloned human PDE IV genes from a number of sources including eosinophils, neutrophils, lymphocytes, monocytes, brain and neuronal tissues. These genes have been transfected into yeast using an inducible vector and various recombinant proteins have been expressed which have the biochemical characteristics of PDE IV (Beavo and Reifsnyder, 1990, TIPS, 11, 150). These recombinant enzymes, particularly the human eosinophil recombinant PDE IVA, have been used as the basis of a screen for potent, selective PDE IV inhibitors.
The enzymes were purified to isoenzyme homogeneity using standard chromatographic techniques.
Phosphodiesterase activity was assayed as follows. The reaction was conducted in 150 μl of standard mixture containing (final concentrations): 50 mM 2-[[tris(hydroxymethyl)methyl]amino]-1-ethanesulphonic acid (TES) --NaOH buffer (pH 7.5), 10 mM MgCl2, 0.1 μM [^3 H]-cAMP and vehicle or various concentrations of the test compounds. The reaction was initiated by addition of enzyme and conducted at 30° C. for between 5 to 30 min. The reaction was terminated by addition of 50 μl 2% trifluoroacetic acid containing [^14 C]-5'AMP for determining recovery of the product. An aliquot of the sample was then applied to a column of neutral alumina and the [^3 H]-cAMP eluted with 10 ml 0.1 TES-NaOH buffer (pH8). The [^3 H]-5'-AMP product was eluted with 2 ml 2M NaOH into a scintillation vial containing 10 ml of scintillation cocktail. Recovery of [^3 H]-5'AMP was determined using the [^14 C]-5'AMP and all assays were conducted in the linear range of the reaction. Results were expressed as IC50 values.

[1] = Rat hepatocyte metabolism; assay type: in vitro ADME; details: rat hepatocytes, after 3 h; read-out: percentage of compound remaining
Description: The quantity of compound remaining after a fixed period of time was then determined using mass spectroscopy.
Thus in one such test the compound of Example 1 was compared with a related compound particularly described in International Patent Specification No. WO94/14742 in which the phenylsulphonyl group in the compound of Example 1 is replaced by a hydrogen atom. After 3 h the percentage of each compound remaining was: […]

[2] = Plasma levels after oral administration to squirrel monkeys; assay type: in vivo; details: monkey, 10 mg/kg p.o., after 30 min, read-out: plasma level
Description: The same two compounds were also administered orally to squirrel monkeys at 10 mg/kg p.o,. and the plasma levels of each determined. After 1 h the […] compound was present at 1 μg/ml whereas after 30 min the compound of Example 1 was present at 34 μg/ml, thus illustrating the good oral availability of the compound.

IC50 (human PDE IVA) | remaining at 3 h [1] | concentration at 0.5 h [2] | Structure (SMILES)
4 nM | 56% | 34000 ng/mL | COc1ccc([C@H](Cc2ccncc2)c2ccc(NC(=O)NS(=O)(=O)c3ccccc3)cc2)cc1OC1CCCC1 [Example 1, (R)-N-[4-{1-(3-Cyclopentyloxy-4-methoxyphenyl)-2-(4-pyridyl)ethyl}-phenyl]-N'-(phenylsulphonyl) urea, hydrochloride]
13.9 nM | – | – | COc1ccc([C@H](Cc2ccncc2)c2ccc(NC(=O)NS(=O)(=O)c3ccc(C)cc3)cc2)cc1OC1CCCC1 [Example 2, (R)-N-[4-{1-(3-Cyclopentyloxy-4-methoxyphenyl)-2-(4-pyridyl)ethyl}-phenyl]-N'-(methylphenylsulphonyl) urea, hydrochloride]
17.6 nM | – | – | COc1ccc([C@H](Cc2ccncc2)c2ccc(NC(=O)NS(=O)(=O)c3ccc(Cl)cc3)cc2)cc1OC1CCCC1 [Example 3, (R)-N-[4-{1-(3-Cyclopentyloxy-4-methoxyphenyl)-2-(4-pyridyl)ethyl}-phenyl]-N'-(4-chlorophenylsulphonyl) urea, hydrochloride]
